Patent publication US20110176998A1, “IMAGING AND THERAPY OF VIRUS-ASSOCIATED TUMORS” (THE JOHNS HOPKINS UNIVERSITY, priority 2007, published 2011)

What was measured:
AGS-BX1 cells = experiment: GFP assay in AGS-BX1 cells; conditions: 1 μM
BZLF1 protein (ZTA) = experiment: Western blot / immunoblot for ZTA (BZLF1 protein) in EBV positive cell lines; type: cell-based, Epstein-Barr virus
Protocol: To detect expression of the EBV-TK or EBV-ZTA, total cell protein was first extracted by treating cells with lysis buffer (0.05 M Tris, pH 7.6, 0.15 M NaCl, 1% triton-X 100, 2 mM EDTA) containing protease inhibitors for 10 minutes at 4° C. The following reagents were added to 1 mL of lysis buffer: 2 μL leupeptin (5 mg/mL), 1 μL 0.2 M Na3VO4, 1 μL NaF, 1 μL aprotinin (10 mg/ml), 1 μL, pepstatin (2 mM), and 10 μL PMSF (100 mM) for 10 minutes at 4° C. Following centrifugation, the supernatant was collected and stored at −80° C. Protein concentration was determined with the BCA Protein Assay Kit (Pierce, Rockford, Ill.) according to the manufacturer's instructions. A 10 μg aliquot of total cellular protein was fractionated on a 7.5% SDS-polyacrylamide gel. Proteins were transferred to PROTRAN nitrocellulose membrane (Schleicher & Schuell, Keene, N.H.). The membranes were blocked with 5% blotting grade non-fat dry milk (Bio-rad, Hercules, Calif.) in PBS with 0.1% TWEEN-20 (PBS-T) at 4° C. overnight. The membranes were then washed with PBS-T twice followed by incubation with 1/1,000-diluted rabbit anti-TK sera from a rabbit immunized with a synthetic EBV-TK peptide ([…]) or anti-ZTA monoclonal antibody (Argene, North Massapequa, N.Y.) at room temperature for 1 hour. After washing, the membranes were incubated with HRP-conjugated goat anti-rabbit IgG antibodies or HRP-conjugated goat anti-mouse IgG antibodies (Amersham Pharmacia Biotech, Piscataway, N.J.) at a 1/5,000 dilution in PBS-T at room temperature for 1 hour. The membranes were washed twice and proteins were detected with ECL Western Blotting Detection reagents (Amersham Pharmacia Biotech). The membranes were exposed to X-OMAT film (Kodak, Rochester, N.Y.) at room temperature.
For lytic induction studies, cells were seeded at 10^6/ml, and treated with test compounds for 48 hours. Control untreated cells were incubated in parallel.
Cells were washed with PBS twice. Total cellular protein was extracted with lysis buffer. Proteins were electrophoresed in polyacrylamide and then transferred onto a PROTRAN nitrocellulose membrane (Schleicher&Schuell, Keene, N.H.). Blots were probed with primary antibody (Ab) overnight at 4° C. HRP-conjugated secondary Ab was added after washing and detected by an enhanced chemiluminescence system (ECL) (Amersham). The following antibodies were used: anti-ZTA (Argene), anti-f3-actin (Sigma), anti-mouse (Sigma).

[1] = tested on: EBV viral DNA copy number; experiment: real-time PCR for EBV viral DNA copy number (viral replication); type: cell-based, Epstein-Barr virus; conditions: for EBV viral replication (DNA copy number): LCL and SNU719 cells, 1 μM, 48 hours
Protocol: Genomic DNA from treated cells were extracted with the QIAamp DNA mini kit (Qiagen, CA) according to the manufacturer's instructions. PCRs were set up in a volume of 50 μL with a TaqMan PCR core reagent kit (Perkin-Elmer Corp., Branchburg, N.J.). Fluorescent probes were custom synthesized by Perkin-Elmer Applied Biosystems. PCR primers were synthesized by Gibco BRL (Frederick, Md.). Each reaction contained 5 μL of 10× buffer A (4 mM MgCl2), amplification primers (300 nM), fluorescent probe (25 nM), dATP, dCTP, and dGTP (200 μM each), dUTP (400 uM), 1.25 U of AmpliTaq Gold, and 0.5 U of AmpErase uracil N-glycosylase. Extracted genomic DNA was used for amplification. DNA amplification was carried out in a 96-well reaction plate in a Perkin-Elmer Applied Biosystems 7700 sequence detector. Each sample was analyzed in duplicate, and multiple negative water blanks were included in each analysis. A calibration curve was run in parallel and in duplicate with each analysis, with DNA extracted from the EBV-positive cell line Namalwa as a standard.
The EBV genome was quantified by real-time PCR with the ICycler system (Biorad, Hercules, Calif.). Template DNA was extracted with a mini blood DNA Kit (Qiagen, Valencia, Calif.). […]. A calibration curve was run in parallel and in duplicate with each analysis, using DNA extracted from the diploid EBV-positive cell line Namalwa containing two integrated viral genomes per cell as a standard. Amplification data were collected with an MyiQ single color real-time PCR Detector (Biorad) and analyzed with the MyiQ software developed by Biorad.

Zta promoter = type: cell-based, Epstein-Barr virus; conditions: AGS cells
[2] = earlier clinical use of FIAU (toxicity); type: in vivo, humans; conditions: conservatively estimated
Protocol: With regard to the potential clinical use of BETR therapy, FIAU-associated toxicity warrants discussion. FIAU was previously investigated as an antiviral agent. […] In those trials, treatment for less than four weeks with a cumulative dose less than 200 mg was not associated with either clinical or biochemical evidence of toxicity. Thus, the “no-effect dose” of FIAU might be conservatively estimated to be on the order of 0.1 mg/kg per administration. […] Extrapolating from xenograft experiments, a radiotherapeutic effect is likely to be achieved at doses of FIAU that are orders of magnitude times less than the no-effect FIAU dose in humans.

[3] = serum and whole blood; 24 hour period; cited from earlier work
[4] = cited from earlier work
[5] = in vivo; cited from earlier work
[6] = tested on: EBV-positive lymphoblastoid cells (LCL); experiment: immunofluorescence assay for BZLF1 protein in LCL cells; type: cell-based, Epstein-Barr virus; conditions: 1 μM, 48 hours
Protocol: LCL cells were treated with 1 μM Ara-c for 48 hours. The cells were then washed with PBS, resuspended, and plated on polylysine glass slides. Indirect immunofluorescence assays and fluorescence microscopy were performed. The slides were fixed in methanol at −20° C., washed with PBS, then incubated in primary antibody anti-ZTA (1:200) (Argene), washed with PBS, followed by secondary antibody incubation of donkey rhodamine-conjugated IgG (Jackson Pharmaceuticals, west Grove, Pa.). Mounting solution with 4′,6′-diamidino-2-phenylindole (DAPI) (Vector Shield) was used to mark the nucleus of the cell. Slides were then observed and photographed with 40× objectives on a E800 microscope (NIKON) with CCD camera (Princeton Instruments) using Metamorph software (Universial Imaging-Molecular Devices).

EBV-TK = experiment: immunoblot for EBV-TK expression; type: cell-based, Epstein-Barr virus; conditions: Western blot
Protocol: To detect expression of the EBV-TK or EBV-ZTA, total cell protein was first extracted by treating cells with lysis buffer (0.05 M Tris, pH 7.6, 0.15 M NaCl, 1% triton-X 100, 2 mM EDTA) containing protease inhibitors for 10 minutes at 4° C. The following reagents were added to 1 mL of lysis buffer: 2 μL leupeptin (5 mg/mL), 1 μL 0.2 M Na3VO4, 1 μL NaF, 1 μL aprotinin (10 mg/ml), 1 μL, pepstatin (2 mM), and 10 μL PMSF (100 mM) for 10 minutes at 4° C. Following centrifugation, the supernatant was collected and stored at −80° C. Protein concentration was determined with the BCA Protein Assay Kit (Pierce, Rockford, Ill.) according to the manufacturer's instructions. A 10 μg aliquot of total cellular protein was fractionated on a 7.5% SDS-polyacrylamide gel. Proteins were transferred to PROTRAN nitrocellulose membrane (Schleicher & Schuell, Keene, N.H.). The membranes were blocked with 5% blotting grade non-fat dry milk (Bio-rad, Hercules, Calif.) in PBS with 0.1% TWEEN-20 (PBS-T) at 4° C. overnight. […] The membranes were washed twice and proteins were detected with ECL Western Blotting Detection reagents (Amersham Pharmacia Biotech). […]

COC(=O)Nc1nc2ccc(C(=O)c3ccccc3)cc2[nH]1 [Mebendazole]
GFP signal (AGS-BX1 cells): induced GFP signal | ZTA expression (BZLF1 protein (ZTA); LCL cells and AKATA cells): induced | increase of EBV viral DNA copy number ([1]; LCL cells and Rael cells, 1 μM for 48 hours): 20 fold | induction of BZLF1 promoter (Zta promoter; 1 μM): induced

O=c1[nH]c(=O)n([C@@H]2O[C@H](CO)[C@@H](O)[C@@H]2F)cc1I [FIAU, 2′-fluoro-2′-deoxy-β-D-5-iodouracil-arabinofuranoside]
no-effect dose [2]: ~0.1 mg/kg per administration | labeled compound remaining unchanged [3]: 97.8%±0.1% | toxicity of chronic dosing ([4]; earlier antiviral trials): hepatic damage and in some cases fatality | cumulative dose not associated with clinical or biochemical evidence of toxicity ([4]; treatment for less than four weeks): less than 200 mg | blood-brain barrier penetration [5]: does not penetrate the blood-brain barrier

Nc1ccn([C@@H]2O[C@H](CO)[C@@H](O)[C@@H]2O)c(=O)n1 [Cytarabine]
LCL cells induced into lytic infection [6]: 40% | BZLF1 protein (ZTA) expression (BZLF1 protein (ZTA); AKATA(-BX1), LCL and SNU719 cells, 1 μM, 48 hours): induced | EBV viral replication (DNA copy number) [1]: did not induce | EBV viral replication (DNA copy number) ([1]; listed as Ara-c): not amplified | Zta promoter luciferase activity (Zta promoter): induced | EBV early lytic gene TK expression (EBV-TK): induced
